Reference: article PMC5516028, “Molecular tools for GABAA receptors: High affinity ligands for β1-containing subtypes” (Scientific Reports, 2017)
Like-named read-outs stand apart in the source and are kept apart here.

Key:
[1] = tested on: γ2 subunit containing GABAA receptors; assay: Control of γ2 subunit incorporation with diazepam; type: cell-based, rat; conditions: 1 µM
Protocol: (§1) For electrophysiological recordings, oocytes were placed on a nylon-grid in a bath of Ca^2+-containing NDE solution medium [96 mM NaCl, 5 mM HEPES-NaOH (pH 7.5), 2 mM KCl, 1 mM MgCl2, 1.8 mM CaCl2]. For current measurements the oocytes were impaled with two microelectrodes (1–3 MΩ resistance) filled with 2 M KCl. […] The EC3–5 was determined at the beginning of each experiment. Drugs were diluted into NDE from DMSO-solutions resulting in a final concentration of 0.1% DMSO perfusing the oocytes. […] Between two applications, oocytes were washed in NDE for up to 15 min to ensure full recovery from desensitization. […] All recordings were performed at room temperature at a holding potential of […] using a Dagan TEV-200A two-electrode voltage clamp (Dagan Corporation, Mineapolis, MN). Data were digitized, recorded and measured using an Axon Digidata- 1550 low-noise data acquisition system (Axon Instruments, Union City, CA).

[2] = tested on: δ subunit containing GABAA receptors; assay: Control of δ subunit incorporation with DS2; type: cell-based, rat; conditions: 1 µM
Protocol: as §1, with “desensitization. Maximum currents measured in mRNA injected oocytes were in the microampere range for all subtypes of GABAA receptors. […] In order to monitor receptor composition, diazepam (~200% modulation at 1 µM) was used to investigate the incorporation of the γ2[25] subunit, DS2 (>800% modulation at 1 µM) for the incorporation of the δ subunit and triazolam (>200% modulation at 10 µM) for the γ1 incorporation.” for “desensitization.”, “CA). […]” for “CA).”

[3] = biological target: T1, α1β1 GABAA receptors (Rattus norvegicus, UniProt P15431+P62813); assay: Two electrode voltage clamp in Xenopus laevis oocytes, α1β1; type: cell-based; conditions: for EC50: read-out: EC50
T1 construct: expressed in transfected cells; host or cells: Xenopus laevis oocytes, mRNA injected
From the text: (§2) cDNA’s of rat GABAA receptor subunits α1, α4, β1, β2, β3 and γ2S were cloned as described. cDNAs of the rat subunits α2, α3 and α5 were gifts from P. Malherbe, that of α6 and γ1 were gifts of P. Seeburg and that of δ was a gift of C. Czajkowski. The mutants were constructed using the Q5 Site-Directed Mutagenesis Kit (New England Biolabs) following manufacturer’s instruction. We used the wild-type rat β3-pCI vector as template and the primers […] and […] resulting in a substitution of amino acid N41 (AAC) to R (AGG). We used the wild-type rat β1-pCI vector as template and the primers […] and […] resulting in a substitution of amino acid R41 (CGG) to N (AAC). The mutated subunits were confirmed by sequencing.
(§3) In vitro transcription of mRNA was based on the cDNA expression vectors encoding for rat GABAA receptor subunits α1–6, β1-3, γ1,2, δ and the two β mutants (β1R41N and β3N41R)[40]. After linearizing the cDNA vectors with appropriate restriction endonucleases, the cDNA was purified and concentrated with the DNA Clean and Contentrator ^TM Kit (Zymoresearch, Catalog No. D4005). Capped transcripts of the purified cDNA were produced using the mMESSAGE mMACHINE® T7 transcription kit (Ambion, TX, USA) and polyadenylated using the Ambion PolyA tailing kit (Ambion). After transcription and polyadenylation the RNA was purified with the MEGAclear ^TM Kit (Ambion, Catalog No. AM1908). The final RNA concentration was measured on NanoDrop® ND-1000 and finally diluted and stored in diethylpyrocarbonate-treated water at −80 °C. For the microinjection, the RNA of αβ receptor combinations was mixed at 1:1 ratio (which leads to αβ receptors that consist of predominantly 3 beta and 2 alpha subunits[27]), for αkβlγm (k = 1–3, l = 1, 3, m = 1, 2) receptors at 1:1:5 ratio, for αkβ3γ2 (k = 4–6) and αkβlδ (k = 1, 4 and 6, l = 1, 3) receptor combinations at 3:1:5 ratio.
(§4) Mature female Xenopus laevis (Nasco, WI) were anesthetized in a bath of ice-cold 0.17% Tricain (Ethyl-m-aminobenzoate, Sigma, MO) before decapitation in full accordance with all rules of the Austrian animal protection law (see http://www.ris.bka.gv.at/Dokumente/BgblAuth/BGBLA_2012_I_114/BGBLA_2012_I_114.pdf) and the Austrian animal experiment by-laws (see https://www.ris.bka.gv.at/Dokumente/BgblAuth/BGBLA_2012_II_522/BGBLA_2012_II_522.pdf) which implement the European Directive 2010/63/EU (see http://eur-lex.europa.eu/LexUriServ/LexUriServ.do?uri=OJ:L:2010:276:0033:0079:en:PDF) into the Austrian law (all information accessed on July 27, 2016). The frog’s ovaries were transferred to ND96 medium (96 mM NaCl, 2 mM KCl, 1 mM MgCl2, 5 mM HEPES; pH 7.5). Stage 5–6 oocytes with the follicle cell layer around them were roughly dissected with forceps into packages of 10–15 cells and washed in Ca^2+-free ND96 medium. Cells were then digested with collagenase (type IA, Sigma, NO, 1 mg/mL ND96) at 18 °C shaking at 30 rpm for 30–60 minutes and gently defolliculated with the aid of a glass pipette with appropriate tip diameter and a platinum loop. Defolliculated cells were stored at 18 °C for at least 6 hours in ND96 solution containing penicillin G (10000 IU/100 mL) and streptomycin (10 mg/100 mL) in order to preselect and exclude damaged cells from further treatment. Healthy defolliculated oocytes were injected with an aqueous solution of mRNA. A total of 4.5 ng of mRNA per oocyte was injected with a Nanoject II (Drummond). After injection of mRNA, oocytes were incubated at 18 °C (ND96 + antibiotic) for 2–3 days for αβ receptors and for 3–4 days for αβγ or αβδ receptors before recording. When cells were measured at later time points, oocytes were stored at +4 °C instead of 18 °C.
(§5) For electrophysiological recordings, oocytes were placed on a nylon-grid in a bath of Ca^2+-containing NDE solution medium [96 mM NaCl, 5 mM HEPES-NaOH (pH 7.5), 2 mM KCl, 1 mM MgCl2, 1.8 mM CaCl2].

[4] = biological target: T2, α1β2 GABAA receptors (Rattus norvegicus, UniProt P62813+P63138); assay: Two electrode voltage clamp in Xenopus laevis oocytes, α1β2; type: cell-based
T2 construct: expressed in transfected cells; host or cells: Xenopus laevis oocytes, mRNA injected
From the text: as §2, §3, §4, §5

[5] = biological target: T3, α1β3 GABAA receptors (Rattus norvegicus, UniProt P62813+P63079); assay: Two electrode voltage clamp in Xenopus laevis oocytes, α1β3; type: cell-based
T3 construct: expressed in transfected cells; host or cells: Xenopus laevis oocytes, mRNA injected
From the text: as §2, §3, §4, §5

[6] = biological target: T4, α1β1R41N GABAA receptors (Rattus norvegicus, UniProt P15431+P62813, R66N); assay: Two electrode voltage clamp in Xenopus laevis oocytes, mutant α1β1R41N; type: cell-based
T4 construct: expressed in transfected cells; host or cells: Xenopus laevis oocytes, mRNA injected
From the text: as §2, §3, §4, §5

[7] = biological target: T5, α1β3N41R GABAA receptors (Rattus norvegicus, UniProt P62813+P63079, N66R); assay: Two electrode voltage clamp in Xenopus laevis oocytes, mutant α1β3N41R; type: cell-based; conditions: co-applied with GABA EC3-5, read-out: EC50 values for the mutated receptors
T5 construct: expressed in transfected cells; host or cells: Xenopus laevis oocytes, mRNA injected
From the text: as §2, §3, §4, §5

T2 sequence (P62813 28-455): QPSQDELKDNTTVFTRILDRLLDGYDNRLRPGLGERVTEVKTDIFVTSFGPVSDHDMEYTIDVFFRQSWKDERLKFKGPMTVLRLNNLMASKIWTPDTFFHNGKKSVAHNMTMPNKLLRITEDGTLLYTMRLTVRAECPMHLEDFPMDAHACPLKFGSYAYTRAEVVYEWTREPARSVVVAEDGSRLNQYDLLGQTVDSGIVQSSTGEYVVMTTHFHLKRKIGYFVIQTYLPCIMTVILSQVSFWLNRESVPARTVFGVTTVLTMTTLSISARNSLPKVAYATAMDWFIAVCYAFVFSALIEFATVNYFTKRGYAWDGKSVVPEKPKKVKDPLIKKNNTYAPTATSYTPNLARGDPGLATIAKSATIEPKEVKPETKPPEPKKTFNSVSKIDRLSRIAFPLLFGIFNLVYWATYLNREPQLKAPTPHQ
T2 sequence (P63138 25-474 limits assumed): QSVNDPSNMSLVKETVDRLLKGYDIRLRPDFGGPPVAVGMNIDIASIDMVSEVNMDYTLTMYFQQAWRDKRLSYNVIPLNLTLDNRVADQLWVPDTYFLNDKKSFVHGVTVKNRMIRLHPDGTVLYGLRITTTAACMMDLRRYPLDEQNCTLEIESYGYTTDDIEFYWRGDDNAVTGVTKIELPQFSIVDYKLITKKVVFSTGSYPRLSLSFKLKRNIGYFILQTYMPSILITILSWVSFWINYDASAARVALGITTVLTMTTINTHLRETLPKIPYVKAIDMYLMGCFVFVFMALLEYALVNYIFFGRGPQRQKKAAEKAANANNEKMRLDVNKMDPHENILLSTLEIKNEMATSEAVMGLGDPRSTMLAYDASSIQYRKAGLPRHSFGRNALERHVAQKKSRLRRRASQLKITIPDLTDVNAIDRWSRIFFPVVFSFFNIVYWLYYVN
T3 sequence (P62813 28-455): as the sequence (P62813 28-455) above
T3 sequence (P63079 26-473): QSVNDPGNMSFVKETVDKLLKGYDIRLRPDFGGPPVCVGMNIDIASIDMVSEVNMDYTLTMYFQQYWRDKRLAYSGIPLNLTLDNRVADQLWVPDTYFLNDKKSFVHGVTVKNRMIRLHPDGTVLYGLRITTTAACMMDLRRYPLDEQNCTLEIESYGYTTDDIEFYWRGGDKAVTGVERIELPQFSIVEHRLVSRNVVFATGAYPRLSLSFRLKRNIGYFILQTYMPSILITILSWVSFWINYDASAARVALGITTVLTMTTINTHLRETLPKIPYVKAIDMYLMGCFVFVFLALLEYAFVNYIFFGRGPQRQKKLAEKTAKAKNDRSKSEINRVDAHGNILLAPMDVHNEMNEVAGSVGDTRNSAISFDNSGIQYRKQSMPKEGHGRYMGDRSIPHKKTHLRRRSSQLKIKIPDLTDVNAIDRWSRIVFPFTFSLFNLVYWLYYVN
T1 sequence (P62813 28-455): as the sequence (P62813 28-455) above
T1 sequence (P15431 26-474): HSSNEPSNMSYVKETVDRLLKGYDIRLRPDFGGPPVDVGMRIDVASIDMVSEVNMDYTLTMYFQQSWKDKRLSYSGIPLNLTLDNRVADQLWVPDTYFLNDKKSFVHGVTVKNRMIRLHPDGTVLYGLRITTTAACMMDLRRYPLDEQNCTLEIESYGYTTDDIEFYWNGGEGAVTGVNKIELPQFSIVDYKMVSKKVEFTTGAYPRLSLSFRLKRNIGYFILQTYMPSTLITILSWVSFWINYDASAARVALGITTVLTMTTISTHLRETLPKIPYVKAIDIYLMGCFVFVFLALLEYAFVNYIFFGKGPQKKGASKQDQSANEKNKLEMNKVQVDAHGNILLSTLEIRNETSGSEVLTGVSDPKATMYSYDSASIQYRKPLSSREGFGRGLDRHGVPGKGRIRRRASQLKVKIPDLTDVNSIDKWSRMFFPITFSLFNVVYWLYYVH
T4 sequence (P62813 28-455): as the sequence (P62813 28-455) above
T4 sequence (P15431 26-474 R66N): as the sequence (P15431 26-474) above, with R41N counted along it
T5 sequence (P62813 28-455): as the sequence (P62813 28-455) above
T5 sequence (P63079 26-473 N66R): as the sequence (P63079 26-473) above, with N41R counted along it

CN1C(=O)CN=C(c2ccccc2)c2cc(Cl)ccc21 [diazepam, Diazepam]
modulation [1]: ~ 200%

O=C(Nc1c(-c2cccs2)nc2ccccn12)c1ccc(Cl)cc1 [DS2]
modulation [2]: > 800%

COc1ccc(-n2nc3c4cc(OC)ccc4[nH]cc-3c2=O)cc1 [Compound 4, 8-Methoxy-2-(4-methoxyphenyl)-2,5-dihydro-3H-pyrazolo[4,3-c]quinolin-3-one]
activity at 0.001 µM ([3]; read-out: efficacy, % of control current (GABA EC3-5 = 100%), α1β1, 1 nM): 100% | activity at 0.003 µM ([3]; read-out: efficacy, % of control current (GABA EC3-5 = 100%), α1β1, 3 nM): 100% | activity at 0.03 µM ([3]; read-out: efficacy, % of control current (GABA EC3-5 = 100%), α1β1, 30 nM): 127 ± 1% | activity at 0.3 µM ([3]; read-out: efficacy, % of control current (GABA EC3-5 = 100%), α1β1, 300 nM): 397 ± 54.9% | activity at 30 µM ([3]; read-out: efficacy, % of control current (GABA EC3-5 = 100%), α1β1, 30 µM): 218 ± 11% | Hill slope (nH) ([3]; α1β1): 1.8±0.4 | EC50 ([3]; α1β1 (α1+/β1− interface)): ~0.2 µM | EC50 ([3]; α1β1, co-applied with GABA EC3-5): 0.21 µM | EC50 [4]: 2.62 µM | activity at 0.003 µM ([4]; read-out: efficacy, % of control current (GABA EC3-5 = 100%), α1β2, 3 nM): 100% | activity at 0.03 µM ([4]; read-out: efficacy, % of control current (GABA EC3-5 = 100%), α1β2, 30 nM): 100% | activity at 0.3 µM ([4]; read-out: efficacy, % of control current (GABA EC3-5 = 100%), α1β2, 300 nM): 166 ± 7.9% | activity at 3 µM ([4]; read-out: efficacy, % of control current (GABA EC3-5 = 100%), α1β2, 3 µM): 689 ± 82.9% | Hill slope (nH) ([4]; α1β2): 1.3±0.5 | activity at 0.3 µM ([5]; read-out: efficacy, % of control current (GABA EC3-5 = 100%), α1β3, 300 nM): 149 ± 15.8% | activity at 1 µM ([5]; read-out: efficacy, % of control current (GABA EC3-5 = 100%), α1β3, 1 µM): 242 ± 16% | activity at 3 µM ([5]; read-out: efficacy, % of control current (GABA EC3-5 = 100%), α1β3, 3 µM): 654 ± 109% | Hill slope (nH) ([5]; α1β3): 1.9±0.5 | EC50 ([5]; α1β3, co-applied with GABA EC3-5, read-out: EC50): 3.13 µM | EC50 ([5]; α1β3, log of EC50, sign as printed, read-out: LogEC50 (converted)): 3.09 µM | current as % of control at 0.1 µM ([6]; 100nM, read-out: % of control current at EC3-5): 80 ± 10% | current as % of control at 0.3 µM ([6]; 300nM, read-out: % of control current at EC3-5): 85 ± 12% | current as % of control at 1 µM ([6]; 1μM, read-out: % of control current at EC3-5): 110 ± 20% | current as % of control at 3 µM ([6]; 3µM, read-out: % of control current at EC3-5): 150 ± 25% | current as % of control at 10 µM ([6]; 10μM, read-out: % of control current at EC3-5): 180 ± 45% | current as % of control at 30 µM ([6]; 30μM, read-out: % of control current at EC3-5): 140 ± 15% | EC50 ([6]; co-applied with GABA EC3-5): 1.2 µM | EC50 [7]: 1.2 µM
